# Reference: patent US9730940B2, “Purine inhibitors of human phosphatidylinositol 3-kinase delta” (priority 2012, dated 2017)
# Biological target: PI3K-alpha (Homo sapiens (Human), UniProt P42336)
# Test: HTRF PI3K biochemical assay, alpha isoform
# Conditions: ratio PI3K-alpha IC50 value/PI3K-delta IC50 value
# From the text: HTRF PI3K Biochemical Assay to Measure Intrinsic Potency of Compound Inhibitors
# The PI3-Kinase biochemical assays were developed to measure the intrinsic potency and compound dependent inhibition of the alpha, beta, delta, and gamma PI3K isoform enzymes. This assay was developed and further optimized from a kit produced by Upstate (Millipore catalog #33-047) and has been configured for HTS and SAR screening. Briefly, this procedure exploits the exquisite specificity and high affinity binding of enzyme reaction substrate phosphatidyl(3,4,5)triphosphate (PIP3) to the GRP1 pleckstrin homology (PH) domain to generate the signal. In the absence of PIP3, an HTRF (Homogeneous Time-Resolved Fluorescence energy transfer) complex is formed consisting of europium (Eu)-labeled anti-GST, GST tagged GRP1-PH domain, biotin-PIP3 and streptavidin conjugated APC. The native PIP3 produced by PI3-Kinase activity disrupts in a competitive manner the biotin-PIP3 from the PH domain, resulting in the loss of energy transfer (HTRF complex) and a decrease in the signal. The format of this assay is the same for all 4 isoforms of PI3K; the differences lie in the concentration of enzyme used to achieve robust assay window. The alpha, beta, and delta assays are run at 0.5, 1, and 0.3 nM enzymes and the gamma assay is run at 5 nM enzyme. The ATP concentration is 100 uM in the alpha, beta, and delta assays and 50 uM ATP in the gamma assay. All reactions are run at 5 uM PIP2.
# Compounds are serially diluted (3-fold in 100% DMSO) across a 384-well polypropylene source plated from column 3 to column 12 and column 13 to column 22, to yield 10 concentration dose response for each test compound. Columns 1, 2, 23 and 24 contain either only DMSO or pharmacological known control inhibitor.
# The PI3-Kinase biochemical assay was optimized using the HTRF kit provided by Upstate (Millipore). The assay kit contains six reagents: 1) 4× Reaction Buffer; 2) native PIP2 (substrate); 3) Stop (EDTA); 4) Detection Mix A (Streptavidin-APC); 5) Detection Mix B (Eu-labeled Anti-GST plus GST-tagged PH-domain); 6) Detection Mix C.
# PI3Kinase Reaction Buffer is prepared by dilution the stock 1:4 with de-ionized water. […] Enzyme addition and compound pre-incubation are initiated by the addition of 1.25 ul of PI3K (at twice its final concentration) in the 1× reaction buffer to all wells using a BioRaptor. Plates are incubated at room temperature for 15 minutes. Reactions are initiated by addition of 1.25 ul of 2× substrate solution (PIP2 and ATP in 1× reaction buffer) using BioRaptor. Plates are incubated in humidified chamber at room temperature for one hour. Reactions are quenched by addition of 0.625 uL of stop solution to all wells using the BioRaptor. The quenched reactions are then processed to detect product formation by adding 0.625 uL of Detection Solution to all wells using the BioRaptor (Detection mix C, Detection Mix A, and Detection Mix B combined together in an 18:1:1 ratio prepared 2 hours prior to use).
# The loss of the HTRF signal is due to the displacement of biotinylated-PIP3 from the PH domain by the PI3K-dependent conversion of PIP2 to PIP3. This loss of signal is nonlinear with respect to both increasing product and time. This non-linear detection will impact accuracy of IC50 calculations; therefore, there is a need for a correction factor to obtain more accurate IC50 values. This correction is derived from a PIP3 standard curve run in a separate assay plate. All data were calculated using the ratio of acceptor (APC) to donor (Europium) fluorescence in each well of the assay plate. […] An IC50 was then calculated fitting the % inhibition data to the equation: % inhibition=min+(Max−min)/1+([inhibitor]/IC50)^n) where min is the % inhibition […], max is the signal in DMSO control, and n is the Hill slope.
# Sequence of PI3K-alpha (P42336 whole entry, looked up, canonical isoform): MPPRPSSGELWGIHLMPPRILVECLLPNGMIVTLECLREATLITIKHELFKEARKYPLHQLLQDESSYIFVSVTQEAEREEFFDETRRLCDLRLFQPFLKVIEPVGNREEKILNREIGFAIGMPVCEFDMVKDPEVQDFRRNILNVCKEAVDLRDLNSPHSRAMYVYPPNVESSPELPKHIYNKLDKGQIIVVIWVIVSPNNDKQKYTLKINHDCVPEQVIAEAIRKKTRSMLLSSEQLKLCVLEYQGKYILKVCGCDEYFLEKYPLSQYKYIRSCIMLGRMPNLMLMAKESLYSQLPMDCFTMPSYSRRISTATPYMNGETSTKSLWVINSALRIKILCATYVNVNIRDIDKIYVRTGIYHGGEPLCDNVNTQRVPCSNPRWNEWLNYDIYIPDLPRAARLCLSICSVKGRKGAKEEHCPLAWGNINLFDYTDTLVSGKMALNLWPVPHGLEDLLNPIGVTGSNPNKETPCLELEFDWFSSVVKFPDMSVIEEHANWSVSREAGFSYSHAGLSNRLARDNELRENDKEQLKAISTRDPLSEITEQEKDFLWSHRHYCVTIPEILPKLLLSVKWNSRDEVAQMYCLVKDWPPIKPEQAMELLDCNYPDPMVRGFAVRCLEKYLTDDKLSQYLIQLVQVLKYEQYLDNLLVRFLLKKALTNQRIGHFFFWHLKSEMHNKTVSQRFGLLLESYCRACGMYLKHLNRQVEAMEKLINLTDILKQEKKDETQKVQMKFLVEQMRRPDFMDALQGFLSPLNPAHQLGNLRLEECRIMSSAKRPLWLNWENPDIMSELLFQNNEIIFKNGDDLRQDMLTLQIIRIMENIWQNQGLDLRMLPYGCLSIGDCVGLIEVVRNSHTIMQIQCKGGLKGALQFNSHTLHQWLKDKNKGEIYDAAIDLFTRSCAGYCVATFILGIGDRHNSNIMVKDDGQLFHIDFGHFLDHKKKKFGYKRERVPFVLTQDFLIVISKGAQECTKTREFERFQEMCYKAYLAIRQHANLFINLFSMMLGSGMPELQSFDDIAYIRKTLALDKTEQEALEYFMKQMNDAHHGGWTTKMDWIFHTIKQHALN
# Sequence of PI3K-alpha (P27986 whole entry partner, looked up, canonical isoform): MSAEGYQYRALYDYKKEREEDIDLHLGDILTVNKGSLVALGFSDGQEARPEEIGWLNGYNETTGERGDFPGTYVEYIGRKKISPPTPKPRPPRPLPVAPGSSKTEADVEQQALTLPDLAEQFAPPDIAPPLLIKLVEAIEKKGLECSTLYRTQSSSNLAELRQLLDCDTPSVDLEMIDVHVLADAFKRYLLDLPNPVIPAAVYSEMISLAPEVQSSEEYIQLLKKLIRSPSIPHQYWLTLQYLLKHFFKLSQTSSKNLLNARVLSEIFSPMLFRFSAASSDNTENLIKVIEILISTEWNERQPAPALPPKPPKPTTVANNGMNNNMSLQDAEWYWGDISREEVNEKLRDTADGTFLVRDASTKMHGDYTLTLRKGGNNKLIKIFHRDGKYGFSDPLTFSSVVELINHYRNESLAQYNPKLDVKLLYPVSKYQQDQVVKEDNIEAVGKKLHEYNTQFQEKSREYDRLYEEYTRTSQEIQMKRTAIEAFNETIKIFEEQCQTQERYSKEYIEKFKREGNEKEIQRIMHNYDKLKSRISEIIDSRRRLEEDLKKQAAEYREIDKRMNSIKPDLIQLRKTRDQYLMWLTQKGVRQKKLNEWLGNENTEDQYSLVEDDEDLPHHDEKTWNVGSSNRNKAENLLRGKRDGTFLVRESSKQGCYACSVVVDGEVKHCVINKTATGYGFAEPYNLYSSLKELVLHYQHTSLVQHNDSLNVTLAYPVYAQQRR
row,Structure (SMILES),Relative Selectivity versus PI3Kalpha
1,"CCn1c(-c2cnc(C)nc2)nc2c(OC3CN(C(=O)C4CC4)CC3O)ncnc21 (single isomer, unassigned) [Compound 2-100, [(3R,4R) or (3S,4S)]-trans-1-(cyclopropylcarbonyl)-4-{[9-ethyl-8-(2-methylpyrimidin-5-yl)-9H-purin-6-yl]oxy}pyrrolidin-3-ol]",>10
2,"CCn1c(-c2cnc(C)nc2)nc2c(OC3CN(C(=O)C4CC4)CC3OC)ncnc21 (single isomer, unassigned) [Compound 2-115]",>10
3,"CCn1c(-c2cnc(C)nc2)nc2c(O[C@H]3CCN(C(=O)C4CCC4C)C3)ncnc21 (single isomer, unassigned) [Compound 2-117, 9-ethyl-6-({(3S)-1-[([(1R,2S) or (1R,2R) or (1S,2R) or (1S,2S)]-methylcyclobutyl)carbonyl]pyrrolidin-3-yl}oxy)-8-(2-methylpyrimidin-5-yl)-9H-purine]",>10
4,"CCn1c(-c2cnc(C)nc2)nc2c(O[C@H]3CCN(C(=O)C4CCC4C)C3)ncnc21 (single isomer, unassigned) [Compound 2-118, 9-ethyl-6-({(3S)-1-[([(1R,2S) or (1R,2R) or (1S,2R) or (1S,2S)]-methylcyclobutyl)carbonyl]pyrrolidin-3-yl}oxy)-8-(2-methylpyrimidin-5-yl)-9H-purine]",>10
5,"CCn1c(-c2cnc(C)nc2)nc2c(O[C@H]3CCN(C(=O)C4CCC4C)C3)ncnc21 (single isomer, unassigned) [Compound 2-119, 9-ethyl-6-({(3S)-1-[([(1R,2S) or (1R,2R) or (1S,2R) or (1S,2S)]-methy]cyclobutyl)carbonyl]pyrrolidin-3-yl}oxy)-8-(2-methylpyrimidin-5-yl)-9H-purine]",>10
6,"CCn1c(-c2cnc(C)nc2)nc2c(O[C@H]3CCN(C(=O)C4CCC4C)C3)ncnc21 (single isomer, unassigned) [Compound 2-120, 9-ethyl-6-({(3S)-1-[([(1R,2S) or (1R,2R) or (1S,2R) or (1S,2S)]-methylcyclobutyl)carbonyl]pyrrolidin-3-yl}oxy)-8-(2-methylpyrimidin-5-yl)-9H-purine]",>10
7,"CCn1c(-c2cnc(C)nc2)nc2c(O[C@H]3CCN(C(=O)C4CC4C(F)F)C3)ncnc21 (single isomer, unassigned) [Compound 2-124, 6-{[(3S)-{(1S,2S)- or (1R,2R)-[2-(difluoromethyl)cyclopropyl]carbonyl}pyrrolidin-3-yl]oxy}-9-ethyl-8-(2-methylpyrimidin-5-yl)-9H-purine]",>10
8,"CCn1c(-c2cnc(C)nc2)nc2c(O[C@H]3CCN(C(=O)C4CC4C(F)F)C3)ncnc21 (single isomer, unassigned) [Compound 2-125, 6-{[(3S)-1-{(1S,2S)- or (1R,2R)-[2-(difluoromethyl)cyclopropyl]carbonyl}pyrrolidin-3-yl]oxy}-9-ethyl-8-(2-methylpyrimidin-5-yl)-9H-purine]",>10
9,"CCn1c(-c2cnc(C)nc2)nc2c(O[C@H]3CCN(C(=O)C4CC4(C)C)C3)ncnc21 (single isomer, unassigned) [Compound 2-126, 6-({(3S)-1-[S- or R-(2,2-dimethylcyclopropyl)carbonyl]pyrrolidin-3-yl}oxy)-9-ethyl-8-(2-methylpyrimidin-5-yl)-9H-purine]",>10
10,"CCn1c(-c2cnc(C)nc2)nc2c(O[C@H]3CCN(C(=O)C4CC4(C)C)C3)ncnc21 (single isomer, unassigned) [Compound 2-127, 6-({(3S)-1-[S- or R-(2,2-dimethylcyclopropyl)carbonyl]pyrrolidin-3-yl}oxy)-9-ethyl-8-(2-methylpyrimidin-5-yl)-9H-purine]",>10
11,"CCn1c(-c2cnc(C)nc2)nc2c(O[C@H]3CCN(C(=O)C4CC4CO)C3)ncnc21 (single isomer, unassigned) [Compound 2-130, (1S,2S)- or (1R,2R)-{[(3S)-3-{[9-ethyl-8-(2-methylpyrimidin-5-yl)-9H-purin-6-yl]oxy}pyrrolidin-1-yl]carbonyl}cyclopropyl)methanol]",>10
12,"CCn1c(-c2cnc(C)nc2)nc2c(O[C@H]3CCN(C(=O)C4CC4CO)C3)ncnc21 (single isomer, unassigned) [Compound 2-131, (1S,2S)- or (1R,2R)-{[(3S)-3-{[9-ethyl-8-(2-methylpyrimidin-5-yl)-9H-purin-6-yl]oxy}pyrrolidin-1-yl]carbonyl}cyclopropyl)methanol]",>10
13,"CCn1c(-c2cnc(C)nc2)nc2c(O[C@H]3CCN(C(=O)C4CC4CF)C3)ncnc21 (single isomer, unassigned) [Compound 2-132, 9-ethyl-6-{[(3S)-1-{[(1S,2S)- or (1R,2R)-2-(fluoromethyl)cyclopropyl]carbonyl}pyrrolidin-3-yl]oxy}-8-(2-methylpyrimidin-5-yl)-9H-purine]",>10
14,"CCn1c(-c2cnc(C)nc2)nc2c(O[C@H]3CCN(C(=O)C4CC4CF)C3)ncnc21 (single isomer, unassigned) [Compound 2-133, 9-ethyl-6-{[(3S)-1-{[(1S,2S)- or (1R,2R)-2-(fluoromethyl)cyclopropyl]carbonyl}pyrrolidin-3-yl]oxy}-8-(2-methylpyrimidin-5-yl)-9H-purine]",>10
15,"CCn1c(-c2cnc(C)nc2)nc2c(O[C@H]3CCN(C(=O)C4CC4F)C3)ncnc21 (single isomer, unassigned) [Compound 2-134, 9-ethyl-6-(((3S)-1-[((1R,2R)- or (1S,2S)-2-fluorocyclopropyl)carbonyl]pyrrolidin-3-yl}oxy)-8-(2-methylpyrimidin-5-yl)-9H-purine]",>10
16,"CCn1c(-c2cnc(C)nc2)nc2c(O[C@H]3CCN(C(=O)C4CC4F)C3)ncnc21 (single isomer, unassigned) [Compound 2-135, 9-ethyl-6-({(3S)-1-[((1R,2R)- or (1S,2S)-2-fluorocyclopropyl)carbonyl]pyrrolidin-3-yl}oxy)-8-(2-methylpyrimidin-5-yl)-9H-purine]",>10
17,"CCn1c(-c2cnc(C)nc2)nc2c(OC3CN(C(=O)C4CC4)CC3F)ncnc21 (single isomer, unassigned) [Compound 2-137, 6-{[1-(cyclopropylcarbonyl)-(3S,4S)- or (3R,4R)-4-fluoropyrrolidin-3-yl]oxy}-9-ethyl-8-(2-methylpyrimidin-5-yl)-9H-purine]",>10
18,"CCn1c(-c2cnc(C)nc2)nc2c(OC3CN(C(=O)C4CC4)CC3F)ncnc21 (single isomer, unassigned) [Compound 2-138, 6-{[1-(cyclopropylcarbonyl)-(3S,4S)- or (3R,4R)-4-fluoropyrrolidin-3-yl]oxy}-9-ethyl-8-(2-methylpyrimidin-5-yl)-9H-purine]",>10
19,"CCC1CN(C(=O)C2CC2)C[C@H]1Oc1ncnc2c1nc(-c1cnc(C)nc1)n2CC (single isomer, unassigned) [Compound 3-47, [3R,4S or 3S,4R]-6-{[1-(cyclopropylcarbonyl)-4-ethylpyrrolidin-3-yl]oxy}-9-ethyl-8-(2-methylpyrimidin-5-yl)-9H-purine]",>10
